Measured values reported in the supplement of paper PMC13380429.

Key:
Conditions in all cases: 72 h
HepG2 [1] = assay: drug sensitivity score (DSS) for viability; higher = more toxic; extreme values may be limits of the assay
Vero E6 [2] = assay: as above
Caco-2 [3] = assay: as above
U2OS [4] = assay: as above
Calu-3 [5] = assay: as above
HepG2 [6] = assay: cell viability relative to DMSO; higher = less toxic
Vero E6 [7] = assay: as above
Caco-2 [8] = assay: as above
U2OS [9] = assay: as above
Calu-3 [10] = assay: as above
HepG2 [11] = assay: relative viability EC50 (midpoint between 100% and the lowest measured viability); higher = less toxic
Vero E6 [12] = assay: as above
Caco-2 [13] = assay: as above
U2OS [14] = assay: as above
Calu-3 [15] = assay: as above

SMILES | drug sensitivity score (HepG2 [1]) | drug sensitivity score (Vero E6 [2]) | drug sensitivity score (Caco-2 [3]) | drug sensitivity score (U2OS [4]) | drug sensitivity score (Calu-3 [5]) | cell viability (HepG2 [6]; 1 nM) [%] | cell viability (HepG2 [6]; 10 nM) [%] | cell viability (HepG2 [6]; 100 nM) [%] | cell viability (HepG2 [6]; 1000 nM) [%] | cell viability (HepG2 [6]; 10000 nM) [%] | cell viability (Vero E6 [7]; 1 nM) [%] | cell viability (Vero E6 [7]; 10 nM) [%] | cell viability (Vero E6 [7]; 100 nM) [%] | cell viability (Vero E6 [7]; 1000 nM) [%] | cell viability (Vero E6 [7]; 10000 nM) [%] | cell viability (Caco-2 [8]; 1 nM) [%] | cell viability (Caco-2 [8]; 10 nM) [%] | cell viability (Caco-2 [8]; 100 nM) [%] | cell viability (Caco-2 [8]; 1000 nM) [%] | cell viability (Caco-2 [8]; 10000 nM) [%] | cell viability (U2OS [9]; 1 nM) [%] | cell viability (U2OS [9]; 10 nM) [%] | cell viability (U2OS [9]; 100 nM) [%] | cell viability (U2OS [9]; 1000 nM) [%] | cell viability (U2OS [9]; 10000 nM) [%] | cell viability (Calu-3 [10]; 1 nM) [%] | cell viability (Calu-3 [10]; 10 nM) [%] | cell viability (Calu-3 [10]; 100 nM) [%] | cell viability (Calu-3 [10]; 1000 nM) [%] | cell viability (Calu-3 [10]; 10000 nM) [%] | relative viability EC50 (HepG2 [11]) [µM] | relative viability EC50 (Vero E6 [12]) [µM] | relative viability EC50 (Caco-2 [13]) [µM] | relative viability EC50 (U2OS [14]) [µM] | relative viability EC50 (Calu-3 [15]) [µM]
CCCCCCCCCCCCCCCCCC(=O)OCC(O)CO (stereo not given) [monostearin] | 0 | 0 | 0 | 0 | 0 | 104 | 103 | 97.1 | 96.5 | 102 | 99.9 | 106 | 96.3 | 99.5 | 100 | 100 | 96.9 | 89.6 | 100 | 96.9 | 97.8 | 96.5 | 92 | 104 | 93.8 | 103 | 101 | 83.9 | 105 | 94.8 | > 10 | > 10 | > 10 | > 10 | > 10
Cc1ccc(CC2(O)CCN(CCOc3ccc(O)cc3)CC2)cc1 | 1 | 0 | 0 | 0 | 0 | 100 | 90.4 | 108 | 90.3 | 84.6 | 103 | 101 | 99.4 | 99.6 | 93.1 | 103 | 101 | 95.5 | 91.7 | 92.2 | 100 | 96.8 | 97.8 | 97.1 | 99.7 | 110 | 96.5 | 91.7 | 95.9 | 96.9 | > 10 | > 10 | > 10 | > 10 | > 10
Cc1cc(C(C)(C)C)cc(C)c1CC1=NCCN1 [xylometazoline] | 0 | 0 | 0 | 0 | 0 | 107 | 93.4 | 89.6 | 116 | 101 | 112 | 98.2 | 97.3 | 112 | 89.8 | 100 | 74.7 | 99.8 | 97.6 | 105 | 98.5 | 93.2 | 102 | 97.3 | 103 | 98.6 | 92.4 | 108 | 92 | 108 | > 10 | > 10 | > 10 | > 10 | > 10
CN(C)CCCSc1ccccc1NC(=O)/C=C/c1ccccc1 [cinanserin] | 0.1 | 0 | 0 | 0 | 0 | 94.3 | 94.1 | 101 | 102 | 85.8 | 99.4 | 99.9 | 97 | 101 | 87.9 | 92.4 | 95 | 94.4 | 97.3 | 102 | 108 | 99.6 | 98.5 | 97.2 | 97.6 | 108 | 98.6 | 98.1 | 90.7 | 98.9 | > 10 | > 10 | > 10 | > 10 | > 10
Nc1nc(=O)n([C@@H]2CS[C@H](CO)O2)cc1F [emtricitabine] | 0.4 | 0 | 0 | 0 | 0 | 104 | 105 | 102 | 97.5 | 85.5 | 102 | 102 | 99.5 | 104 | 100 | 107 | 108 | 108 | 98.8 | 109 | 97.2 | 104 | 92.1 | 98 | 98.9 | 104 | 88.8 | 105 | 96.2 | 110 | > 10 | > 10 | > 10 | > 10 | > 10
NC1CCN(c2cccc(Cl)n2)CC1 | 0 | 0 | 0 | 0 | 0 | 94.8 | 100 | 102 | 111 | 101 | 101 | 100 | 94.3 | 96 | 96.2 | 95.9 | 97 | 96.6 | 103 | 96.5 | 101 | 101 | 101 | 102 | 95.2 | 89.4 | 93 | 99.5 | 87.9 | 102 | > 10 | > 10 | > 10 | > 10 | > 10
CC(=O)Nc1ccc(OC[C@](C)(O)C(=O)Nc2ccc([N+](=O)[O-])c(C(F)(F)F)c2)cc1 [andarine] | 0 | 0 | 0 | 0 | 0 | 105 | 98.8 | 100 | 103 | 99 | 101 | 104 | 101 | 96.3 | 100 | 97.4 | 98.6 | 87.3 | 93.5 | 99.2 | 97.9 | 102 | 94.8 | 98 | 93.9 | 93.1 | 98.1 | 90.2 | 105 | 90.3 | > 10 | > 10 | > 10 | > 10 | > 10
NCCCCCC(=O)O [aminocaproic-acid] | 0 | 0 | 0 | 0 | 0 | 81.2 | 95 | 96.6 | 94.1 | 90.9 | 102 | 106 | 98.6 | 109 | 92.6 | 119 | 99.3 | 102 | 105 | 109 | 104 | 97.1 | 101 | 95 | 98.5 | 105 | 90.6 | 96.9 | 91.3 | 99.4 | > 10 | > 10 | > 10 | > 10 | > 10
